{"source": "paper PMC6702328", "about": "“A VDAC1-Derived N-Terminal Peptide Inhibits Mutant SOD1-VDAC1 Interactions and Toxicity in the SOD1 Model of ALS” (Frontiers in Cellular Neuroscience, 2019)", "key": {"NSC-34 cells": {"tested_on": "NSC-34 cells", "experiment": "Cell death, PI staining and flow cytometry, NSC-34", "assay_type": "cell-based, mouse", "details": "5 h, serum-free medium, 37°C", "experimental": "(§1) NSC-34 cells, a mouse motor neuron-like hybrid cell line, the A549 human lung adenocarcinoma and U-87MG human glioblastoma cell lines were incubated with the (1-26)N-Ter-Antp, D-(15-26)N-Ter-Antp, (1-20)N-Ter-Antp, (5-20)N-Ter-Antp, or (10-20)N-Ter-Antp peptides in the appropriate serum-free growth medium for 5 h at 37°C. Cells were harvested, and analyzed for cell death using propidium iodide (PI) staining and flow cytometry. For XTT, the CellTiter 96 AQueous one-solution cell proliferation assay was used to follow cell viability as described previously ([Leyton-Jaimes et al., 2016]).\n(§2) NSC-34 (A), U-87MG (B), or A549 (C) cells were incubated with the indicated concentrations of (1-26)N-Ter-Antp (∙), D-(15-26) (19-26)N-Ter-Antp (▲), (1-20)N-Ter-Antp (∘), (5-20)N-Ter-Antp (□) or (10-20)N-Ter-Antp (◆) peptide for 5 h. Cell death was analyzed using PI staining and flow cytometry. […] Cell viability analysis was performed with the CellTiter 96 AQueous one-solution cell proliferation assay with ELISA at 490 nm. […] The significance of quantitative analysis of triplicates of different biological repeats (n = 3) was performed by Student’s t-test; ^∗∗P < 0.01. […] Twenty-four hours post-transfection, the cells were incubated for 5 h with (10-20)N-Ter-Antp peptide (20 μM) and then analyzed for apoptosis using acridine orange and ethidium bromide staining, as described previously ([McGahon et al., 1995]). Fluorescence microscopy images were analyzed and about 100 to 300 cells were counted for each treatment in representative microscopic fields. The significance of quantitative analysis of triplicates of different biological repeats (n = 3) was performed by one-way Anova; ^∗∗P < 0.01."}, "U-87MG cells": {"tested_on": "U-87MG cells", "experiment": "Cell death, PI staining and flow cytometry, U-87MG", "assay_type": "cell-based, human", "details": "5 h, serum-free medium, 37°C", "experimental": "as §1, §2"}, "A549 cells": {"tested_on": "A549 cells", "experiment": "Cell death, PI staining and flow cytometry, A549", "assay_type": "cell-based, human", "details": "5 h, serum-free medium, 37°C", "experimental": "as §1, §2"}, "[1]": {"tested_on": "NSC-34 cells transfected to express human mutant SOD1^G93A", "experiment": "Rescue of mutant SOD1^G93A toxicity, cell viability (XTT / CellTiter 96 AQueous)", "assay_type": "cell-based, mouse", "details": "NSC-34 cells expressing SOD1^G93A, increasing peptide concentrations, 5 h, XTT assay; n = 3", "experimental": "as §1, §2\nCell viability was quantified using the XTT assay and apoptosis using acridine orange and ethidium bromide staining. […] Importantly, this effect was observed using the three non-cell death-inducing VDAC1-derived N-terminal peptides, i.e., the (1-20)-N-Ter-Antp, (5-20)-N-Ter-Antp and (10-20)-N-Ter-Antp peptides."}, "[2]": {"tested_on": "SOD1^G93A-expressing mESC-derived MNs", "experiment": "Neurite outgrowth of mESC-derived motor neurons", "assay_type": "cell-based, mouse", "details": "10 μM, first 24 h; mean ± SEM n = 3, P < 0.05", "experimental": "(§3) This cell line carries green fluorescent protein (GFP) under the control of the promoter for the motor neuron (MN)-specific transcription factor HB9 (HB9:GFP cells) ([Di Giorgio et al., 2007]). We used the SOD1^G93A mESC line to derive GFP^+ MNs.\n(§4) Motor neuron differentiation was induced as described previously with some modifications ([Wichterle et al., 2002]). Cells were cultured in ADFNB medium composed of advanced D-MEM/F12:Neurobasal (1:1), 0.1 mM 2-mercaptoethanol, and GlutaMAX supplement, B27 supplement, and N2 supplement all from Invitrogen, to form embryoid bodies (EBs), and supplemented with 0.1 μM of retinoic acid (RA, Sigma), as well as 0.5 μM of sonic hedgehog (Shh) agonist Ag1.3 (Curis) every second day.\nFor an in vitro differentiation assay, EBs were enzymatically dissociated after 7 days in culture with TrypLE Express (Gibco) and seeded on 0.01% poly-l-ornithine (Sigma) pre-coated coverslips followed by laminin (10 μg/ml, Sigma). […]\nSOD1^G93A-expressing mESC-derived MNs were incubated with the indicated concentrations of (1-20)N-Ter-Antp peptide for 1–4 days following initiation of final differentiation. […] GFP fluorescence indicates the expression of the motor neuron-specific transcription factor HB9. […] (E) Quantification of MNs survival. For all assays, results are expressed as the mean ± SEM (n = 3). ^*P < 0.05."}, "[3]": {"tested_on": "SOD1^G93A-expressing mESC-derived MNs", "experiment": "Survival of mESC-derived motor neurons", "assay_type": "cell-based, mouse", "experimental": "as §3, §4\nFor an in vitro differentiation assay, EBs were enzymatically dissociated after 7 days in culture with TrypLE Express (Gibco) and seeded on 0.01% poly-l-ornithine (Sigma) pre-coated coverslips followed by laminin (10 μg/ml, Sigma). Cells (5 × 10^4) were seeded on coverslip in 24-well plates with ADFNB cell medium supplemented with of Ciliary neurotrophic factor (10 ng/ml, CNTF) and Glial cell-derived neurotrophic factor (GDNF; Miltenyi Biotec). During plating, 1-20N-Ter-Antp VDAC1-peptide was added to the cultures. Half of the medium was replaced with fresh medium every second day and at the indicated time points. The cultures were fixed in 4% paraformaldehyde in PBS.\nStereological estimation of neurite lengths to evaluate neurite outgrowth in cultured cells was carried out as described previously ([Ronn et al., 2000]). The total neuritic length per cell was estimated by counting the number of GFP^+ soma and neurite intersections with test lines of an unbiased counting frame superimposed on images of cell cultures obtained using a 20× objective (NA 0.75) of a Nikon Eclipse E800 epifluorescence microscope equipped with a Nikon DXM1200F CCD camera. The absolute length, L, of neurites per cell was subsequently estimated from the number of neurite intersections, I, per cell by means of the equation L = (πd/2)I describing the relationship between the number of neurite intersections and the vertical distance, d, between the test lines used.\nSOD1^G93A-expressing mESC-derived MNs were incubated with the indicated concentrations of (1-20)N-Ter-Antp peptide for 1–4 days following initiation of final differentiation. […] Scale bar, 100 μm. […] GFP fluorescence indicates the expression of the motor neuron-specific transcription factor HB9. Gross cellular morphology of surviving MNs remained unaffected by the (1-20)N-Ter-Antp peptide. Scale bar, 25 μm. (E) Quantification of MNs survival. For all assays, results are expressed as the mean ± SEM (n = 3). ^*P < 0.05."}}}
{"substance": "1-MAVPPTYADLGKSARDVFTK-20-RQIKIWFQNRRMKWKK [(1-20)-N-Ter-Antp, like (1-26)-N-Ter-Antp but shortened by six amino acids at the C-terminus]", "values": [{"measurement": "Cell death induction in NSC-34 cells", "setting": "NSC-34 cells", "result": "could not induce cell death"}, {"measurement": "Cell death induction in U-87MG cells", "setting": "U-87MG cells", "result": "could not induce cell death"}, {"measurement": "Cell death induction in A549 cells", "setting": "A549 cells", "result": "could not induce cell death"}, {"measurement": "Effect on SOD1^G93A toxicity (cell viability)", "setting": "[1]", "result": "reduced the toxic effect of SOD1^G93A in a concentration-dependent manner"}, {"measurement": "MN neurite outgrowth", "setting": "[2]", "result": "significantly increased MN neurite outgrowth"}, {"measurement": "improvement of survival of SOD1^G93A-expressing MNs (fold)", "setting": "[3]; 10 μM, 96 h", "result": "twofold"}, {"measurement": "number of surviving MNs over the course of final differentiation", "setting": "[3]; 10 μM, 96 h, n = 3, P < 0.05", "result": "significantly increased the number of surviving MNs"}, {"measurement": "number of MNs present in the culture", "setting": "[3]; 5 and 10 μM, 24 h after initiation of differentiation, n = 3, P < 0.05", "result": "significantly increased the number of MNs present in the culture"}, {"measurement": "optimal peptide concentration for neurite outgrowth and survival", "setting": "[3]; SOD1^G93A-expressing mESC-derived MNs", "result": 10, "unit": "µM"}]}
